The values that follow come from US7977360B2, “Benzo[d]isoxazol-3-yl-amine compounds and their use as vanilloid receptor ligands” (Gruenenthal GmbH, priority 2005, dated 2011).

The target in this test is T1, vanilloid receptor 1 (VR1/TRPV1 receptor) (Rattus norvegicus, UniProt O35433).
T1 construct: endogenous in cells; host or cells: primary cultured dorsal root ganglion cells from rats
Nature of the test: Functional study on vanilloid receptor 1 (VR1/TRPV1), FLIPR Ca2+ inflow assay in rat dorsal root ganglia cells (method I). The settings on record: compound 10 μM, rat DRG cells; for inhibition at 10 µM: then 100 nM capsaicin after 5 min, per method % inhibition vs maximum achievable inhibition with 10 μM capsaicin, read-out: rVR1 [10 μM] inhibition; for rVR1 [10 μM] stimulation: per method % activation in relation to the Ca2+ signal after 10 μM capsaicin. It counts as cell-based. From the text:
I. Functional Study on Vanilloid Receptor 1 (VR1/TRPV1 Receptor)
The agonistic or antagonistic effect of the substances to be studied on vanilloid receptor 1 (VR1/TRPV1) of the rat species can be determined with the following assay. According to this assay, the Ca^2+ inflow through the receptor canal is quantified with the help of a Ca^2+-sensitive dye (type Fluo-4, Molecular Probes Europe BV, Leiden Netherlands) in the Fluorescent Imaging Plate Reader (FLIPR, Molecular Devices, Sunnyvale, USA).
Complete medium: 50 mL HAMS F12 Nutrient Mixture (Gibco Invitrogen GmbH, Karlsruhe, Germany) with • 10% by vol. FCS (fetal calf serum, Gibco Invitrogen GmbH, Karlsruhe, Germany, heat-inactivated); • 2 mM L-glutamine (Sigma, Munich, Germany); • 1% by weight AA solution (antibiotic/antimycotic solution, PAA, Pasching, Austria) and 25 ng/ml medium NGF (2.5 S, Gibco Invitrogen GmbH, Karlsruhe, Germany)
Cell culture plate: Poly-D-Lysin-coated, 96 well black/clear plates (BD Biosciences, Heidelberg, Germany) are additionally coated with laminin (Gibco Invitrogen GmbH, Karlsruhe, Germany) by diluting laminin to a concentration of […] with PBS (Ca—Mg-free PBS, Gibco Invitrogen GmbH, Karlsruhe, Germany). Aliquots with a concentration of 100 μg/mL of laminin are removed and stored at −20° C. The aliquots are diluted with PBS in a ratio of 1:10 to 10 μg/mL of laminin and respectively 50 μL of the solution is pipetted into a recess of the cell culture plate. Die cell culture plates are incubated for at least two hours at 37° C., the remaining solutions is filtered off by suction and the recesses are each washed twice with PBS. The coated cell culture plates are stored with the remaining PBS and this is only removed directly before the addition of the cells.
The spinal column is removed from decapitated rats and this is placed directly in a cold HBSS buffer (Hank's buffered saline solution, Gibco Invitrogen GmbH, Karlsruhe, Germany), located in an ice bath, to which is added 1% by vol. (percent by volume) of an AA solution (antibiotic/antimycotic solution, PM, Pasching, Austria). The spinal column is divided longitudinally and removed from the vertebral canal together with fascia. The dorsal root ganglia (DRGs) are subsequently removed and in turn stored in cold HBSS buffer to which is added 1% by vol. of an AA solution. The DRGs which have been made completely free of blood residues and spinal nerves are transported in each case into 500 μL cold collagenase type 2 (PAA, Pasching, Austria) and incubated for 35 minutes at 37° C. […]
The DRGs are each multiply suspended, drawn by means of a syringe through cannulas no. […] The resultant pellet is respectively received in 250 μL complete medium and the cell number determined. […]

T1 sequence (O35433 whole entry): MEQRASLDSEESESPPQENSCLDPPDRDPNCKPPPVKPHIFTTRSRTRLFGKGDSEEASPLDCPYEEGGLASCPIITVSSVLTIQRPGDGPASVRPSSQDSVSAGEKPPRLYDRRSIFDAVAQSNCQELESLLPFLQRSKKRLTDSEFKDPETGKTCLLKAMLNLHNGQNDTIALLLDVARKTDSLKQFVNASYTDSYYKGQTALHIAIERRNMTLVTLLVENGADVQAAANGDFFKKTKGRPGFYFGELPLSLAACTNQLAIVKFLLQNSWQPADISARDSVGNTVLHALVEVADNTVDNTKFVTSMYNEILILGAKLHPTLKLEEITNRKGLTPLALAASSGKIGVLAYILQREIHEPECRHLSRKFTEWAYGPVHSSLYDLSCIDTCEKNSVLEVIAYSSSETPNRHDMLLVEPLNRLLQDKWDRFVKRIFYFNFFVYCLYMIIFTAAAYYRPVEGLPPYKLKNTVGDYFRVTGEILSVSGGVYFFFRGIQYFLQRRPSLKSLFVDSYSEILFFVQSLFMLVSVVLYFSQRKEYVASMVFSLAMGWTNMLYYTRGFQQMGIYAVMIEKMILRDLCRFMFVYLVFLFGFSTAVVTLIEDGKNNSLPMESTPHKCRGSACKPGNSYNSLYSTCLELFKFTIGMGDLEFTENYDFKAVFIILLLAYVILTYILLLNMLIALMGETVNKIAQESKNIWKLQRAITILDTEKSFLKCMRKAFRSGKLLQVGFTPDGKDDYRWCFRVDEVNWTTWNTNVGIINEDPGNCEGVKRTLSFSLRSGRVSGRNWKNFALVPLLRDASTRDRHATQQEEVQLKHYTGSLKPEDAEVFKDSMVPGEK

Regarding `CC(C)(C)c1ccc(CNc2noc3cc(-c4ccccn4)ccc23)cc1` [Compound 9, (4-tert-butyl-benzyl)-(6-pyridine-2-yl-benzo[d]isoxazol-3-yl)-amine], the inhibition at 10 µM was 65% and the rVR1 [10 μM] stimulation worked out at 0%.
Consider `Cc1cccnc1-c1ccc2c(NCc3ccc(C(C)(C)C)cc3)noc2c1` [Compound 10, (4-tert-butyl-benzyl)-[6-(3-methyl-pyridine-2-yl)-benzo[d]isoxazol-3-yl]-amine], for which the inhibition at 10 µM is 99% and the rVR1 [10 μM] stimulation was found to be 29%.
